Source: ChEMBL document CHEMBL5321293, “Discovery of ERD-3111 as a Potent and Orally Efficacious Estrogen Receptor PROTAC Degrader with Strong Antitumor Activity” (J Med Chem, 2023)

Tests used:
[1] = Toxicity in CB17 SCID mouse xenografted with human MCF7 cells harboring wild type ESR1 assessed as body weight change at 10 mg/kg,po qd for 5 weeks; assay type: organism-based; conditions: in vivo, 840 h
[2] = target: Cytochrome P450 2C19 (Homo sapiens, UniProt P33261); test: Inhibition of CYP2C19 in human liver microsomes preincubated for 5 mins in presence substrate followed by NADPH addition and measured after 10 mins by LC-MS/MS analysis; assay type: ADME, Microsome
Chain of Cytochrome P450 2C19 (P33261 whole entry): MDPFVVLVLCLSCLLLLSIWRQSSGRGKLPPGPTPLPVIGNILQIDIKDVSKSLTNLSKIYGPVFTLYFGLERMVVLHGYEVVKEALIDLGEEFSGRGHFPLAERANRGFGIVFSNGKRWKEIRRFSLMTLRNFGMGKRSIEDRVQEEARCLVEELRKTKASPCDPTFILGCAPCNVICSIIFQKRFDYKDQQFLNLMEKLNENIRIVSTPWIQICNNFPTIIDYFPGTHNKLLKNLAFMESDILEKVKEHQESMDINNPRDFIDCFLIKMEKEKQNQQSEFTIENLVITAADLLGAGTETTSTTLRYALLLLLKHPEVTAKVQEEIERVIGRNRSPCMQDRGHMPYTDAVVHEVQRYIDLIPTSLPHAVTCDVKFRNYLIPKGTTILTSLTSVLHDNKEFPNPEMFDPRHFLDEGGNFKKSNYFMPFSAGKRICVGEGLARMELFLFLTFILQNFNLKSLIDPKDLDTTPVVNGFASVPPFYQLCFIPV

[3] = test system: MCF7; test: Antitumor activity against human MCF7 cells harboring ESR1 D538G mutant xenografted in CB17 SCID mouse assessed as tumor growth inhibition at 10 mg/kg, po qd for 4 weeks; assay type: functional; conditions: MCF7, 672 h, read-out: TGI
[4] = Metabolic stability in rat liver microsomes assessed as half life at 1 uM and measured upto 60 mins in presence of NADPH by LC-MS/MS analysis; assay type: ADME, Microsome
[5] = Toxicity in CB17 SCID mouse xenografted with human MCF7 cells harboring wild type ESR1 assessed as body weight change at 30 mg/kg,po qd for 5 weeks; assay type: organism-based; conditions: in vivo, 840 h
[6] = Half life in Sprague-Dawley rat at 3 mg/kg, po and measured upto 24 hrs by LC-MS/MS analysis; conditions: in vivo
[7] = Drug concentration in plasma of CB17 SCID mouse xenografted with human MCF7 cells harboring ESR1 Y537S mutant at 30 mg/kg, po qd for 3 days and measured after 6 hrs last dose by LC-MS/MS analysis; assay type: ADME, organism-based; conditions: time 3 day
[8] = Metabolic stability in human liver microsomes assessed as half life at 1 uM and measured upto 60 mins in presence of NADPH by LC-MS/MS analysis; assay type: ADME, Microsome
[9] = Drug concentration in plasma of CB17 SCID mouse xenografted with human MCF7 cells harboring ESR1 D538G mutant at 10 mg/kg, po qd for 3 days and measured after 6 hrs last dose by LC-MS/MS analysis; assay type: ADME, organism-based; conditions: time 3 day
[10] = Downregulation of ERalpha protein expression in tumor of CB17 SCID mouse xenografted with human MCF7 cells harboring ESR1 Y537S mutant at 30 mg/kg, po qd for 3 days and measured after 6 hrs last dose by Western blot analysis relative to control; assay type: functional; conditions: time 3 day
[11] = Drug concentration in plasma of CB17 SCID mouse xenografted with human MCF7 cells harboring wild type ESR1 at 10 mg/kg, po qd for 3 days and measured after 6 hrs last dose by LC-MS/MS analysis; assay type: ADME, organism-based; conditions: time 3 day
[12] = Clearance in ICR mouse at 1 mg/kg, iv and measured upto 24 hrs by LC-MS/MS analysis; assay type: ADME, organism-based; conditions: in vivo
[13] = in vivo; conditions: Sprague-Dawley, rat, po, 3 mg/kg
[14] = target: Cytochrome P450 2D6 (Homo sapiens, UniProt P10635); test: Inhibition of CYP2D6 in human liver microsomes preincubated for 5 mins in presence substrate followed by NADPH addition and measured after 10 mins by LC-MS/MS analysis; assay type: ADME, Microsome
Chain of Cytochrome P450 2D6 (P10635 whole entry): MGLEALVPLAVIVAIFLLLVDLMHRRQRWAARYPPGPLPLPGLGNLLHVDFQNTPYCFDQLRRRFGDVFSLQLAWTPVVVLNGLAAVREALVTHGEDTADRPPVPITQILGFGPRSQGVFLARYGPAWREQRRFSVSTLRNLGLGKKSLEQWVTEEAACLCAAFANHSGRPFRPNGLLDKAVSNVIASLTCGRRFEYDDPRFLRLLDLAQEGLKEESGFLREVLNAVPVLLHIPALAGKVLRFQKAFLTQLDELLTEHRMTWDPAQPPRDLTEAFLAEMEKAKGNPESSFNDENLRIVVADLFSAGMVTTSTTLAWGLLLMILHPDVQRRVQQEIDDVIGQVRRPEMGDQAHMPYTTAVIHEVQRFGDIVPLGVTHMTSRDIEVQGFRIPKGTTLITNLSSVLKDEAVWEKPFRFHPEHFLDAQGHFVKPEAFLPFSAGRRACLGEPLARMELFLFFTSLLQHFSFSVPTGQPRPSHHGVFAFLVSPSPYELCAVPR

[15] = Drug concentration in tumor of CB17 SCID mouse xenografted with human MCF7 cells harboring ESR1 Y537S mutant at 10 mg/kg, po qd for 3 days and measured after 6 hrs last dose by LC-MS/MS analysis; assay type: ADME, organism-based, Neoplasm; conditions: time 3 day, read-out: Ct
[16] = target: Protein cereblon/Estrogen receptor (Homo sapiens, UniProt P03372+Q96SW2); test: Protac activity at human ERalpha in human MCF7 cells assessed as induction of ERalpha degradation by measuring maximum efficacy at 1 uM incubated for 12 hrs by ICW blot assay relative to control; assay type: cell-based
Chain of Protein cereblon/Estrogen receptor (P03372 whole entry, looked up): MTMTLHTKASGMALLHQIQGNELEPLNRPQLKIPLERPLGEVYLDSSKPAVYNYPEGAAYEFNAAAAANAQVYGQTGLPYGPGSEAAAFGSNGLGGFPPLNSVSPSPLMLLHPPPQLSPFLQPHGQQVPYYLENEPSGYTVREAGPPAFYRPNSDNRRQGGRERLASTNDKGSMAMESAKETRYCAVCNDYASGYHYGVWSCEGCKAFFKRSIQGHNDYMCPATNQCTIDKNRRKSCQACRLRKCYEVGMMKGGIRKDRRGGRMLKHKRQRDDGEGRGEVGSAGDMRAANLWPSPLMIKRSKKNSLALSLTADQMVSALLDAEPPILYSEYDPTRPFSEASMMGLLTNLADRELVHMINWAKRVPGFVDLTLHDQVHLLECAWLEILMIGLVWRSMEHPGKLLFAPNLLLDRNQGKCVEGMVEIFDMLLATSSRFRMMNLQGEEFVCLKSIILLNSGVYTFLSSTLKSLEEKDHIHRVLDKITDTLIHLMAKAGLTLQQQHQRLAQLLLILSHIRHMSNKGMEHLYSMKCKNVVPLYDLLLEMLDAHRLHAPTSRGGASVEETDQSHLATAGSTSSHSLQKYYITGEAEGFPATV
Chain of Protein cereblon/Estrogen receptor (Q96SW2 whole entry, looked up): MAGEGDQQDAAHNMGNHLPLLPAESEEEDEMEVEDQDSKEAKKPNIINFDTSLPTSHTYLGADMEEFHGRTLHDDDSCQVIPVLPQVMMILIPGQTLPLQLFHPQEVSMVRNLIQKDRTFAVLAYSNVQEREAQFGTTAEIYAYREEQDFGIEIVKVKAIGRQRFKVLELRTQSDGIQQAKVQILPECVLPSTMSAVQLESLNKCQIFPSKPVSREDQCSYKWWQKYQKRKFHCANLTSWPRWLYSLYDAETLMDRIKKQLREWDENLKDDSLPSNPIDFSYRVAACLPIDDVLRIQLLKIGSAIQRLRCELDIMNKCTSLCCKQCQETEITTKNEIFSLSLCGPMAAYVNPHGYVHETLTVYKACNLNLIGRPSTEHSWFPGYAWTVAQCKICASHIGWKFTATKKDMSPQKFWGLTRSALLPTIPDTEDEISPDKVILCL

[17] = Cmax in Beagle dog at 1 mg/kg, po and measured upto 24 hrs by LC-MS/MS analysis; assay type: ADME, organism-based, Canis lupus familiaris; parameters: time < 24 hrs, dose 1 mg/kg, route po; conditions: in vivo
[18] = Downregulation of ERalpha protein expression in tumor of CB17 SCID mouse xenografted with human MCF7 cells harboring wild type ESR1 at 30 mg/kg, po qd for 3 days and measured after 6 hrs last dose by Western blot analysis relative to control; assay type: functional; conditions: time 3 day

IC50 [2]: > 10 µM
half-life at 1 µM [4]: > 1 h
half-life at 24 h [6]: 4 h
concentration at 72 h [7]: 2830 ng/mL
half-life at 1 µM [8]: > 1 h
concentration at 72 h [9]: 609 ng/mL
concentration at 72 h [11]: 433 ng/mL
clearance [12]: 5.7 mL/min/kg
bioavailability at 24 h [13]: 20%
IC50 [14]: > 10 µM
concentration at 72 h [15]: 692 ng/mL
Emax [16]: 91%
Cmax [17]: 87 ng/mL
SMILES: C[C@@H]1Cc2c(ccc3[nH]ncc23)[C@@H](c2c(F)cc(N3CCC4(CCN(C(=O)CN5Cc6cc7c(cc6C5)C(=O)N(C5CCC(=O)NC5=O)C7=O)CC4)CC3)cc2F)N1CC(F)F (stereo partly drawn)
Activity [1]: Non-Toxic
inhibition in vivo at 10 mg/kg [3]: 38%
Activity [5]: Non-Toxic
Activity [10]: 85%
Activity [18]: 66%
